Legend:
[1] = target: T1, motor domain of the human kinesin spindle protein KSP/Eg5 (Homo sapiens, UniProt P52732); assay: Inhibition of the kinesin spindle protein KSP/Eg5 (ATPase activity, malachite green); format: biochemical; settings: 10 nM KSP/Eg5, microtubuli, 500 μM ATP, 2 h at RT
T1 construct: The motor domain of the human kinesin spindle protein KSP/Eg5; purchased tebu-bio/Cytoskeleton Inc 027EG01-XL
T1 sequence (P52732 18-359 limits assumed): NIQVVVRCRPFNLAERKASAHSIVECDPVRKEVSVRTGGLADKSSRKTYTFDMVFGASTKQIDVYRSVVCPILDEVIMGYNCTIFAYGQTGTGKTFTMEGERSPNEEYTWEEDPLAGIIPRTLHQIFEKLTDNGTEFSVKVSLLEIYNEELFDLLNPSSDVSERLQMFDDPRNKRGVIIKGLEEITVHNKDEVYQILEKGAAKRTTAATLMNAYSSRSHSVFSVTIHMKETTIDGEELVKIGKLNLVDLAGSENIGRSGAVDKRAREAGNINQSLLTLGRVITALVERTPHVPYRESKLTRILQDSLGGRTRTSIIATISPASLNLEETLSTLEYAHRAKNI
Protocol: The motor domain of the human kinesin spindle protein KSP/Eg5 (tebu-bio/Cytoskeleton Inc, No. 027EG01-XL) was incubated in a concentration of 10 nM with microtubuli (bovine or porcine, tebu-bio/Cytoskeleton Inc) stabilized with 50 μg/ml taxol (Sigma No. T7191-5MG) for 5 min at RT in 15 mM PIPES, pH 6.8 (5 mM MgCl2 and 10 mM DTT, Sigma). […] Incubation was at RT for 2 h. ATPase activity was detected by detecting the inorganic phosphate formed using malachite green (Biomol). […] The positive controls used were monastrol (Sigma, M8515-1 mg) and ispinesib (AdooQ Bioscience A10486). The individual data of the dose-activity curve are eight-fold determinations. The IC50 values are means of two independent experiments.

[2] = test system: NCI-H292: human mucoepidermoid lung carcinoma cells; assay: MTT assay on NCI-H292; format: cell-based; settings: NCI-H292, 96 h, growth inhibition, 96 h incubation
Protocol: (§1) The analysis of the cytotoxic effects of the ADCs was carried out with various cell lines:
(§2) The cells were cultivated by the standard method as stated by the American Tissue Culture Collection (ATCC) or the Leibniz-lnstitut DSMZ-Deutsche Sammlung von Mikroorganismen und Zellkulturen GmbH (DSMZ) for the cell lines in question.
(§3) The cells were then incubated in an incubator at 37° C. and 5% carbon dioxide. […] To this end, the MTT reagent was incubated with the cells for 4 h, followed by lysis of the cells overnight by addition of the detergent. […] The measured data were used to calculate the ICo50 of the growth inhibition using the DRC (dose response curve). The proliferation of cells which were not treated with test substance but were otherwise identically treated was defined as the 100% figure.

[3] = test system: SK-HEP-1: human liver cell cancer line; assay: MTT assay on SK-HEP-1; format: cell-based; settings: SK-HEP1, 96 h, growth inhibition, 96 h incubation
Protocol: as §1, §2, §3

[4] = Stability in rat liver lysosomes (chapter C1c); format: in vitro ADME
[5] = target: T2, recombinant human legumain (Homo sapiens, UniProt Q99538); assay: Legumain assay (cleavage of legumain-cleavable prodrugs); format: biochemical; settings: within 24 h; rh legumain, pH 5.0
T2 construct: purchased R&D Systems 2199-CY
T2 sequence (Q99538 26-323 limits assumed): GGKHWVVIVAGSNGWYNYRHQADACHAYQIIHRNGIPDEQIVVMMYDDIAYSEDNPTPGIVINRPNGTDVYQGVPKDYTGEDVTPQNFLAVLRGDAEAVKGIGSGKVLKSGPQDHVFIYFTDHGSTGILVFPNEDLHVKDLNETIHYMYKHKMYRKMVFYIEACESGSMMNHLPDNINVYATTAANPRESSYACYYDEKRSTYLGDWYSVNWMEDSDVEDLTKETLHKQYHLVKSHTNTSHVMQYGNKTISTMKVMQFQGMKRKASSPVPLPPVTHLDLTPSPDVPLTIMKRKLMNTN
Protocol: The legumain assay was conducted with recombinant human enzyme. The rh legumain enzyme solution (catalogue #2199-CY, R&D Systems) was diluted to the desired concentration in 50 mM Na acetate buffer/100 mM NaCl, pH4.0 and preincubated at 37° C. for 2 h. rh legumain was then adjusted to a final concentration of 1 ng/μl in 50 mM MES buffer, 250 mM NaCl, pH 5.0. For every legumain-cleavable prodrug to be examined, a mixture was made up in a micro reaction vessel (0.5 ml, from Eppendorf). For this purpose, the substrate solution was adjusted to the desired concentration (double concentration) with 50 mM MES buffer, 250 mM NaCl, pH 5.0. For the kinetic measurement of the enzymatic reaction, 250 μl of the legumain solution were first initially charged and the enzyme reaction was started by adding 250 μl of the substrate solution (final concentration: single concentration). At different times, 50 μl samples were taken. This sample was admixed immediately with 100 μl of ice-cold methanol in order to stop the enzymatic reaction and then frozen at −20° C. The times selected for sampling were after 0.5 h, 1 h, 3 h and 24 h. The samples were then analysed by means of RP-HPLC analysis and by LC-MS analysis. The determination of the toxophor released enabled the determination of the half-life t½ of the enzymatic reaction (FIG. 1). […]

[6] = Assay for determination of stability in rat plasma; format: in vitro ADME; settings: 1 μg/ml, 37° C., 24 h
Protocol: To examine the stability of compounds A and B, 1 ml of rat plasma in a 1.5 ml Eppendorf tube in each case was equilibrated to 37° C. on an Eppendorf shaker. A stock solution (9 acetonitrile/1 DMSO) having a concentration of 100 μg/ml for compound A and compound B was prepared. 10 μl in each case of the stock solution were pipetted into 1 ml of equilibrated rat plasma, so as to give a concentration of 1 μg/ml.
The samples were kept at 450 rpm and 37° C. for 24 h. At each of the sampling times of 0, 0.25 h, 0.5 h, 1 h, 2 h, 4 h, 6 h and 24 h, 50 μl were taken and pipetted into 150 μl of methanol. Internal standard was included in the initial charge of methanol at a concentration of 0.05 μg/ml. After brief vortexing, 300 μl of 10 mM ammonium acetate buffer (pH 6.8) were added and centrifuged at 1881 g for 10 min. The samples were then analysed by means of RP-HPLC analysis and by LC-MS analysis.

CNC(=O)[C@H](CCN(C(=O)CO)[C@@H](c1cc(-c2cc(F)ccc2F)cn1Cc1ccccc1)C(C)(C)C)NC(=O)[C@H](CC(N)=O)NC(=O)[C@@H](C)NC(=O)[C@H](C)NC(=O)Cc1ccncc1 [Example R3r-LDL, N-(Pyridin-4-ylacetyl)-L-alanyl-D-alanyl-N^1-[(2S)-4-[{(1R)-1-[1-benzyl-4-(2,5-difluorophenyl)-1H-pyrrol-2-yl]-2,2-dimethylpropyl}(glycoloyl)amino]-1-(methylamino)-1-oxobutan-2-yl]-L-aspartamide]
IC50 [1]: 264 nM | IC50 [2]: 190 nM | IC50 [3]: 283 nM | stability in rat liver lysosomes (in words) [4]: high stability | extent of cleavage to the target compound by legumain [5]: about 20% | stability in rat plasma [6]: stable over 24 h

Source: US11685714B2, “Prodrugs of cytotoxic active agents having enzymatically cleavable groups” (BAYER PHARMA AKTIENGESELLSCHAFT, priority 2016, dated 2023)
